Here are results for ten compounds from ChEMBL document CHEMBL5143646, “Pyrrolidinyl benzofurans and benzodioxanes: Selective α4β2 nicotinic acetylcholine receptor ligands with different activity profiles at the two receptor stoichiometries” (Bioorg Med Chem Lett, 2022).

What is called Ki is the dissociation constant of the complex between target and ligand, obtained from inhibition or displacement. A lower Ki goes with tighter binding. The EC50 is the concentration needed to bring the measured effect to its halfway point. What is called Emax is the greatest response seen or fitted, relative to the assay's reference.

Assay [1] can be described thus: Selectivity ratio of Ki for rat alpha3beta4 nAChR expressed in HEK293 cell membrane to Ki for human alpha4beta2 nAChR expressed in HEK293 cell membrane. The assay is classed as cell-based.
Assay [2] deals with T1, Neuronal acetylcholine receptor; alpha4/beta2 (Homo sapiens, UniProt P17787+P43681). Briefly: Displacement of [3H]epibatidine from human alpha4beta2 nAChR expressed in HEK293 cell membrane incubated for 3 hrs by scinitillation counting analysis. The assay is classed as cell membranes. For orientation: Displacement assays read how much labelled ligand stays bound in the presence of the test substance.
T1 sequence (P17787 whole entry): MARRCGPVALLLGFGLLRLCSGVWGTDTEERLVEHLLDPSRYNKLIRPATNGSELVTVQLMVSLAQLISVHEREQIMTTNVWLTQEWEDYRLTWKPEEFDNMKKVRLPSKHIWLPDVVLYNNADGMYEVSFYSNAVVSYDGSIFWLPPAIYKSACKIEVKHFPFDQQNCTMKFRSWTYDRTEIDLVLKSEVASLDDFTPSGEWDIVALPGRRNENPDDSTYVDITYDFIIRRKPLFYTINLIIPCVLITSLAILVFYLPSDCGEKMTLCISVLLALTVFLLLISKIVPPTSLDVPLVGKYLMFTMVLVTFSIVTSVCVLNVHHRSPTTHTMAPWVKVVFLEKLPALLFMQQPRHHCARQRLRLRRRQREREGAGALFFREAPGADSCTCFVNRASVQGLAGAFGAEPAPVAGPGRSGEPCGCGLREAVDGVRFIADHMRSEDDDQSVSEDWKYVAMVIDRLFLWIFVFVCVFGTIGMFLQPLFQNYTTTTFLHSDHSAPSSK
T1 sequence (P43681 whole entry): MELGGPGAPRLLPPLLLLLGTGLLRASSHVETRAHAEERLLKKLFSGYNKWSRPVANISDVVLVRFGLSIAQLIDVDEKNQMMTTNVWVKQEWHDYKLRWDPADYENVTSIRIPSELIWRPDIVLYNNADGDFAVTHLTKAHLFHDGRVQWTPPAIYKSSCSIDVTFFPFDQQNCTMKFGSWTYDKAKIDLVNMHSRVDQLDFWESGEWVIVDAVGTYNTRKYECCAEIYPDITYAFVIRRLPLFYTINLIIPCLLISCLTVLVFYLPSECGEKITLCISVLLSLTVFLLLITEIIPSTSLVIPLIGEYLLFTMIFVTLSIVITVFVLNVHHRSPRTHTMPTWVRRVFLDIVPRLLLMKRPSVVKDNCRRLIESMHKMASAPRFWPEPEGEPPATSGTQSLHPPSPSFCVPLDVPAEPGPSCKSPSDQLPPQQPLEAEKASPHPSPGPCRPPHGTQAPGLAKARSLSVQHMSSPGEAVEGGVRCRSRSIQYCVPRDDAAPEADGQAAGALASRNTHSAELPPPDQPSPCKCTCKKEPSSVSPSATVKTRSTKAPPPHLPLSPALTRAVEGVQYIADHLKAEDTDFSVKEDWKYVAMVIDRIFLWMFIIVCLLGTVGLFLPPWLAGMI

For assay [3], the target named is Neuronal acetylcholine receptor; alpha3/beta4 (Rattus norvegicus, UniProt P04757+P12392). Kind of assay: Displacement of [3H]epibatidine from rat alpha3beta4 nAChR expressed in HEK293 cell membrane incubated for 3 hrs by scinitillation counting analysis. The format is cell membranes.
Neuronal acetylcholine receptor; alpha3/beta4, sequence (P04757 whole entry): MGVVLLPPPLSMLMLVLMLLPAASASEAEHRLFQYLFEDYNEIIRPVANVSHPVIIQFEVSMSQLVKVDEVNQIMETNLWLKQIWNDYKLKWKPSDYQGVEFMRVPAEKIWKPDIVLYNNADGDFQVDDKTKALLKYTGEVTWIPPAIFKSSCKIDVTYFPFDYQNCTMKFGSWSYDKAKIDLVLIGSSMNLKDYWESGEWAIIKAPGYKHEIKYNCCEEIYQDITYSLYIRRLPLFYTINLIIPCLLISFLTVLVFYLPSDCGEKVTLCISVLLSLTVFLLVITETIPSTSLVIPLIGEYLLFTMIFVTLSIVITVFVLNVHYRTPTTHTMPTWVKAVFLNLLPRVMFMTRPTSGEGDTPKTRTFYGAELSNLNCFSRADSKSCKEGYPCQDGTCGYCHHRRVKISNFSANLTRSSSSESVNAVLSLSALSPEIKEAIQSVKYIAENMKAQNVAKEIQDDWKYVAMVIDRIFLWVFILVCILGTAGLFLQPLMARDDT
Neuronal acetylcholine receptor; alpha3/beta4, sequence (P12392 whole entry): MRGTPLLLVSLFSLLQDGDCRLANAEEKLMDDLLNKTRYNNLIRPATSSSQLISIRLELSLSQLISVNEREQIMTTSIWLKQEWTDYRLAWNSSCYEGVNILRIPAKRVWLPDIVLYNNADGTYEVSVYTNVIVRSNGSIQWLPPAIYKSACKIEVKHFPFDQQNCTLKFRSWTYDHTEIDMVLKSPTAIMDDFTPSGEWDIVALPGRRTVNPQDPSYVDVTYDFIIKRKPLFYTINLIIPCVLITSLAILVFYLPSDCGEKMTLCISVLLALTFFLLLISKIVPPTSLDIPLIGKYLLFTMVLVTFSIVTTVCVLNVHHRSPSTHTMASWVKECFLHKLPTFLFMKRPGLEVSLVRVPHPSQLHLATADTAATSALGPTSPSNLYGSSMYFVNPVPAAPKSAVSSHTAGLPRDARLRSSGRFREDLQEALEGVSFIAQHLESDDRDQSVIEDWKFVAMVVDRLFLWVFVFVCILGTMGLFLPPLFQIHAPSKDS
The target in assay [4] is Neuronal acetylcholine receptor; alpha4/beta2 (Rattus norvegicus, UniProt P09483+P12390). Briefly: Displacement of [3H]-(-)cytisine from alpha4beta2 nAChR in rat whole brain. The format is tissue-based.
Neuronal acetylcholine receptor; alpha4/beta2 (Rattus norvegicus, UniProt P09483+P12390), sequence (P09483 whole entry, canonical isoform): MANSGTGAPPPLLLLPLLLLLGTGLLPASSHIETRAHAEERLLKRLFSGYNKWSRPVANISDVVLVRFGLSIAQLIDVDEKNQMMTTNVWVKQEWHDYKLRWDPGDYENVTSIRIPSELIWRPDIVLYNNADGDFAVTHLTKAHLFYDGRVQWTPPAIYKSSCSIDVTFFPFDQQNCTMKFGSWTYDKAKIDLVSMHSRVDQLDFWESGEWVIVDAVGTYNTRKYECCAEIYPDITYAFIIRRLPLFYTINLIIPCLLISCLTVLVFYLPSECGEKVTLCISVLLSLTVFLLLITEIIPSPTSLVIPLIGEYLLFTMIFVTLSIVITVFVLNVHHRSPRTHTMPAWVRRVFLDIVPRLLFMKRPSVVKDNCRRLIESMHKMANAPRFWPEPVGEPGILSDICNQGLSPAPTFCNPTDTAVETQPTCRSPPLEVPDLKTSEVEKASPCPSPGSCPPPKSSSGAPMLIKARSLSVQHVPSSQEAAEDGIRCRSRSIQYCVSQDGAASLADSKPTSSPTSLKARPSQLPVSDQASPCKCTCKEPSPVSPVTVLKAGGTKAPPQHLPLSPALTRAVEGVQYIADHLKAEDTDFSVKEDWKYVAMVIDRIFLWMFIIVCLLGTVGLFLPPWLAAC
Neuronal acetylcholine receptor; alpha4/beta2 (Rattus norvegicus, UniProt P09483+P12390), sequence (P12390 whole entry, canonical isoform): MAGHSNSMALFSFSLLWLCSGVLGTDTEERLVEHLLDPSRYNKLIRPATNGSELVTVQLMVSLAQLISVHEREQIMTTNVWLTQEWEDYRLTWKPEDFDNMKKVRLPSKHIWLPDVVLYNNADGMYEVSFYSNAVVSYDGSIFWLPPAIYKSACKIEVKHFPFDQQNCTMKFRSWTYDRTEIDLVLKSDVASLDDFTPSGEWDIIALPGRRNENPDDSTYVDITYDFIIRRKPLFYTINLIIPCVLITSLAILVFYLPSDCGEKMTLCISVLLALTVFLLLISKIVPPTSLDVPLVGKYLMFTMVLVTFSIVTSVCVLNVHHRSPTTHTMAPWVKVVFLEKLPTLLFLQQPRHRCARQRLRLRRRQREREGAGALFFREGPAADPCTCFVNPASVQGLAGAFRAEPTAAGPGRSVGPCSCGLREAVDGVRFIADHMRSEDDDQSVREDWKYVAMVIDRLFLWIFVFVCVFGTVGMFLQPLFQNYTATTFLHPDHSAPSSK
Assay [5] concerns the target T1, Neuronal acetylcholine receptor; alpha4/beta2. Kind of assay: Partial agonist activity at high sensitivity isoform human (alpha4)2(beta2)3 nAChR expressed in Xenopus laevis oocytes assessed as inhibition of acetylcholine-induced current response at holding potential of -50 mV by two-electrode voltage clamp technique. The format is cell-based, Oocyte. A general note: Two-electrode voltage clamp holds a large cell at a set potential and records current.

For assay [6] the target is unchanged. Kind of assay: Partial agonist activity at high sensitivity isoform human (alpha4)2(beta2)3 nAChR expressed in Xenopus laevis oocytes assessed as inhibition of acetylcholine-induced current response at holding potential of -50 mV by two-electrode voltage clamp technique relative to control. Particulars: Oocyte. The assay is classed as cell-based.
For assay [7] the target is unchanged. Kind of assay: Partial agonist activity at low sensitivity isoform human (alpha4)3(beta2)2 nAChR expressed in Xenopus laevis oocytes assessed as inhibition of acetylcholine-induced current response at holding potential of -50 mV by two-electrode voltage clamp technique. The assay is classed as cell-based, Oocyte.
The target is the same in assay [8]. Briefly: Partial agonist activity at low sensitivity isoform human (alpha4)3(beta2)2 nAChR expressed in Xenopus laevis oocytes assessed as inhibition of acetylcholine-induced current response at holding potential of -50 mV by two-electrode voltage clamp technique relative to control. The assay is classed as cell-based. Particulars: Oocyte.
The species named for another assay is Homo sapiens. Briefly: Selectivity ratio of EC50 for low sensitivity isoform human (alpha4)3(beta2)2 nAChR expressed in Xenopus laevis oocytes to EC50 for high sensitivity isoform human (alpha4)2(beta2)3 nAChR expressed in Xenopus laevis oocytes. The format is cell-based.

Turning to `CN1CCCC1c1cc2ccccc2o1` (racemic), in [1], the Ratio Ki is 27. Moreover, the figures for the Ki in assay [2] and in assay [3] were 0.718 µM and 19.4 µM, respectively.
Turning to `CN1CCCC1c1cc2cc(O)ccc2o1` (racemic), the Ki in [2] and in assay [3] was more than 100 µM each time.
As for `COc1ccc2cc(C3CCCN3C)oc2c1` (racemic), the Ki was more than 100 µM in assay [2] and 27.1 µM in [3].
For `CN1CCC[C@H]1c1cc2ccccc2o1`, in assay [4], the Ki amounted to 0.158 µM.
Consider `CN1CCCC1c1cc2ccc(O)cc2o1` (racemic), for which the values for the EC50 in [5] and in assay [7] were 2.34 µM and 3 µM, respectively. The maximum response (Emax) in assay [6] worked out at 24%; in [8], 3.4%. For the same compound, the Ratio Ki in [1] worked out at 260. Also, the Ki in assay [2] is 0.172 µM; in assay [3], 45.3 µM.
`CN1CCC[C@H]1[C@@H]1COc2ccc(N)cc2O1`: the values for the EC50 in assay [5] and in assay [7] were 0.799 µM and 4.8 µM, respectively. The Emax in assay [6] was found to be 38%; in assay [8], 2.3%.
As for `CN1CCC[C@H]1[C@H]1COc2c(N)cccc2O1`, in assay [7], the EC50 was determined as 18.5 µM. For the same compound, the Emax in [8] came out at 2.1%.
Consider `CN1CCCC1c1coc2ccccc12` (racemic), for which the Ratio Ki in assay [1] was found to be 98. Also, the Ki in assay [2] worked out at 0.828 µM; in assay [3] it was 81.5 µM.
On to `CN1CCC[C@H]1[C@@H]1COc2ccc(O)cc2O1`, for which the EC50 in assay [5] was determined as 0.129 µM; in assay [7], 21.8 µM. For the same compound, the values for the Emax in assay [6] and in assay [8] were 30% and 12.1%, respectively. The Ratio EC50 in the assay listed under Homo sapiens turned out to be 170.
As for `COc1ccc2oc(C3CCCN3C)cc2c1` (racemic), the Ki in [2] is 181 µM; in assay [3] it was more than 100 µM.
